Source: the NIST ThermoML archive (doi:10.1021/je0301085)
Numbers after ± are expanded uncertainties. Blank lines part the entries; values can stand above or below the compound they belong to.

Experiments:
[1] = Liquid; for mass density: 101.33 kPa
[2] = refractive index (Na D-line) (dimensionless); settings: 101.33 kPa, Liquid, Standard Abbe refractometry

SMILES: ClC=C(Cl)Cl [trichloroethene]
- mass density ([1]; 298.15 K): 1464 ± 5 kg/m3
- vapor or sublimation pressure ([1]; 358.25 K): 94.6 ± 0.3 kPa
- vapor or sublimation pressure ([1]; 358.55 K): 95.8 ± 0.3 kPa
- refractive index ([2]; 298.15 K): 1.4782 ± 0.0007

- mass density ([1]; 298.15 K): 679.5 ± 5 kg/m3
- vapor or sublimation pressure ([1]; 369.75 K): 95.8 ± 0.3 kPa
- vapor or sublimation pressure ([1]; 369.78 K): 95.8 ± 0.3 kPa
- refractive index ([2]; 298.15 K): 1.3851 ± 0.0007
SMILES: CCCCCCC [heptane]

SMILES: CC(Cl)(Cl)Cl [1,1,1-trichloroethane]
- mass density ([1]; 298.15 K): 1330 ± 5 kg/m3
- vapor or sublimation pressure ([1]; 345.25 K): 94.6 ± 0.3 kPa
- vapor or sublimation pressure ([1]; 345.35 K): 94.6 ± 0.2 kPa
- vapor or sublimation pressure ([1]; 345.65 K): 95.8 ± 0.3 kPa
- refractive index ([2]; 298.15 K): 1.436 ± 0.0007

SMILES: O=[N+]([O-])c1ccccc1 [nitrobenzene]
- mass density ([1]; 298.15 K): 1198 ± 5 kg/m3
- vapor or sublimation pressure ([1]; 481.15 K): 94.6 ± 0.3 kPa
- refractive index ([2]; 298.15 K): 1.55 ± 0.001

SMILES: Clc1ccccc1 [chlorobenzene]
- mass density ([1]; 293.15 K): 1106 ± 5 kg/m3
- vapor or sublimation pressure ([1]; 402.55 K): 94.6 ± 0.3 kPa
- refractive index ([2]; 293.15 K): 1.5248 ± 0.0007

SMILES: ClC(Cl)C(Cl)Cl [1,1,2,2-tetrachloroethane]
- mass density ([1]; 298.15 K): 1587 ± 5 kg/m3
- vapor or sublimation pressure ([1]; 416.95 K): 94.6 ± 0.2 kPa
- vapor or sublimation pressure ([1]; 417.35 K): 95.8 ± 0.2 kPa
- refractive index ([2]; 298.15 K): 1.494 ± 0.0007

- mass density ([1]; 298.15 K): 1247 ± 5 kg/m3
- vapor or sublimation pressure ([1]; 354.95 K): 94.6 ± 0.3 kPa
- vapor or sublimation pressure ([1]; 355.05 K): 94.6 ± 0.3 kPa
- vapor or sublimation pressure ([1]; 355.25 K): 95.8 ± 0.3 kPa
- refractive index ([2]; 298.15 K): 1.4421 ± 0.0007
SMILES: ClCCCl [1,2-dichloroethane]

SMILES: ClC(Cl)=C(Cl)Cl [tetrachloroethene]
- mass density ([1]; 298.15 K): 1615 ± 5 kg/m3
- vapor or sublimation pressure ([1]; 391.25 K): 94.6 ± 0.2 kPa
- vapor or sublimation pressure ([1]; 391.65 K): 95.8 ± 0.2 kPa
- refractive index ([2]; 298.15 K): 1.505 ± 0.0007
